Experiments:
[1] = tested on: F18 positive reference E. coli strain (107/86); assay: In vitro villous adhesion assay after treatment of porcine villi with agents; format: cell-based, Escherichia coli; conditions: villi of four pigs treated 1 h at room temperature; 1% Triton X-100; 10 mM NaIO4 in 0.2M sodium acetate pH 4.5
From the text: (§1) The nature of the F18R on porcine small intestinal villous enterocytes was investigated using an in vitro villous adhesion inhibition assay (Cox, E., Houvenaghel, A., 1993. Vet. Microbiol. 34(1), 7-18; Verdonck, F., Cox, E., van Gog, K., Van der Stede, Y., Duchateau, L., Deprez, P., Goddeeris, B. M., 2002. Vaccine 20(23-24), 2995-3004). Briefly, a 20 cm intestinal segment was collected from the mid jejunum of a euthanized pig, rinsed three times with ice cold PBS, and fixed with Krebs-Henseleit buffer (160 mM, pH 7.4) containing 1% (v/v) formaldehyde for 30 min at 4° C. Thereafter, the villi were gently scraped from the mucosae with a glass slide and stored in Krebs-Henseleit buffer at 4° C. Treatment of villi with acetone, methanol, 1% Triton® X-100, 10 mM NaIO4 in 0.2M sodium acetate, pH 4.5, or 0.2M sodium acetate, pH 4.5, without NaIO4, respectively, was performed at room temperature on a rotating wheel in a volume of 500 μl during 1 h. Next, the villi were washed 6 times with Krebs-Henseleit buffer followed by addition of 4×10^8 bacteria of the F18 positive reference E. coli strain (107/86), or the F4ac-expressing E. coli strain GIS 26, to an average of 50 villi in a total volume of 500 μl PBS, supplemented with 1% (w/v) D-mannose in order to prevent adhesion mediated by type 1 pili. These mixtures were incubated at room temperature for 1 h while being gently shaken. Villi were examined by phase-contrast microscopy at a magnification of 600, and the number of bacteria adhering along 50 μm brush border was quantitatively evaluated by counting the number of adhering bacteria at 20 randomly selected places, after which the mean bacterial adhesion was calculated.
(§2) To examine the character of the F18R, intestinal villi isolated from four pigs were treated with different agents that affect lipids or carbohydrates on the enterocyte cell membrane. Treatment was followed by assessment of adhesion of F18-fimbriated E. coli to the villus epithelium.

[2] = tested on: F4ac-expressing E. coli strain GIS 26; assay: In vitro villous adhesion assay after treatment of porcine villi with agents (control strain); format: cell-based, Escherichia coli; conditions: villi treated 1 h at room temperature; 1% Triton X-100; 10 mM NaIO4 in 0.2M sodium acetate pH 4.5
From the text: as §1, §2

Row | Structure (SMILES) | Adhesion of F18-fimbriated E. coli to porcine intestinal villi after treatment of the villi [1] | Adhesion of control F4ac-fimbriated E. coli strain to porcine intestinal villi after treatment of the villi [2]
1 | [Na+].[O-][I+3]([O-])([O-])[O-] [NaIO4] | completely abolished | abolished
2 | CC(C)=O [acetone] | completely abolished | no or only little effect

Source: US8703722B2, “Inhibitors of F18+ E coli binding” (priority 2008, dated 2014)
